This note sets out measurements from PubChem BioAssay AID1259411 (Chemical Carcinogenesis Research Information System (CCRIS), 2018).

The source made the active and inactive calls. No rule for the calls is given here.

For the data set, the system named is rodent carcinogenicity bioassays, tumor incidence. Kind of data set: CCRIS carcinogenicity studies. A digest of the protocol: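 Archive of carcinogenicity, mutagenicity, tumor promotion and tumor inhibition results drawn from journals, NCI reports and other sources, expert-reviewed; covers 1985-2011 and is no longer updated.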

`OCCN(CCO)C(=S)S`: the carcinogen call by setting is: (Species: MOUSE, Strain/Sex: B6AKF1/MALE, Route: GAVAGE/ORAL, Dose: 464 MG/KG FROM D 7-28 OF LIFE THEN 1112 MG/KG IN DIET, Tumor Site: Type of Lesion: LIVER: HEPATOMA) “active; positive”; (Species: MOUSE, Strain/Sex: B6C3F1/MALE,FEMALE, Route: GAVAGE/ORAL, Dose: 464 MG/KG FROM D 7-28 OF LIFE THEN 1112 MG/KG IN DIET, Tumor Site: Type of Lesion: LIVER: HEPATOMA) “active; positive”; (Species: RAT, Strain/Sex: STRAIN-CD/MALE,FEMALE, Route: ORAL, Dose: 500, 1000 PPM IN DIET FOR 78 WK) “inactive; negative”.

Take `O=C(Nc1ccc([N+](=O)[O-])cc1Cl)c1cc(Cl)ccc1O`: the carcinogen call reads like this: (Species: MOUSE, Strain/Sex: B6C3F1/FEMALE, Route: ORAL, Dose: 0, 274, 549 PPM IN DIET FOR 78 WK (STUDY DURATION: 91-92 WK), Dose: 0, 274, 549 PPM IN DIET FOR 78 WK (STUDY DURATION: 91-92 WK)) “inactive; negative”; (Species: RAT, Strain/Sex: OSBORNE-MENDEL/FEMALE, Route: ORAL, Dose: 0, 14216, 28433 PPM IN DIET FOR 78 WK (STUDY DURATION: 110-111 WK), Dose: 0, 14216, 28433 PPM IN DIET FOR 78 WK (STUDY DURATION: 110-111 WK), Tumor Site: Type of Lesion: MAMMARY GLAND: ADENOCARCINOMA, STOMACH: CARCINOMA) “equivocal”; (Species: RAT, Strain/Sex: OSBORNE-MENDEL/MALE, Route: ORAL, Dose: 0, 14216, 28433 PPM IN DIET FOR 78 WK (STUDY DURATION: 110-111 WK), Dose: 0, 14216, 28433 PPM IN DIET FOR 78 WK (STUDY DURATION: 110-111 WK)) “inactive; negative”.

Take `Nc1ccc(Oc2ccc(N)cc2)cc1`: the carcinogen call runs as follows: (Species: MOUSE, Strain/Sex: B6C3F1/FEMALE, Route: ORAL, Dose: 0, 0.015, 0.03, 0.08% IN DIET FOR 103 WK (STUDY DURATION: 104 WK), Dose: 0, 0.015, 0.03, 0.08% IN DIET FOR 103 WK (STUDY DURATION: 104 WK), Tumor Site: Type of Lesion: THYROID GLAND: FOLLICULAR ADENOMA, LIVER: ADENOMA, LIVER: HEPATOCELLULAR CARCINOMA, HARDERIAN GLAND: ADENOMA, Tumor Site: Type of Lesion: THYROID GLAND: FOLLICULAR ADENOMA, LIVER: ADENOMA, LIVER: HEPATOCELLULAR CARCINOMA, HARDERIAN GLAND: ADENOMA) “active; positive”; (Species: MOUSE, Strain/Sex: B6C3F1/FEMALE, Route: ORAL, Dose: 0, 150, 300, 800 PPM IN DIET, Dose: 0, 150, 300, 800 PPM IN DIET, Tumor Site: Type of Lesion: LIVER: HEPATOCELLULAR ADENOMA OR CARCINOMA, THYROID GLAND: FOLLICULAR CELL ADENOMA, HARDERIAN GLAND: ADENOMA, NOS, Tumor Site: Type of Lesion: LIVER: HEPATOCELLULAR ADENOMA OR CARCINOMA, THYROID GLAND: FOLLICULAR CELL ADENOMA, HARDERIAN GLAND: ADENOMA, NOS) “active; positive”; (Species: MOUSE, Strain/Sex: B6C3F1/MALE, Route: ORAL, Dose: 0, 0.015, 0.03, 0.08% IN DIET FOR 103 WK (STUDY DURATION: 104 WK), Dose: 0, 0.015, 0.03, 0.08% IN DIET FOR 103 WK (STUDY DURATION: 104 WK), Tumor Site: Type of Lesion: THYROID GLAND: FOLLICULAR HYPERPLASIA, HARDERIAN GLAND: ADENOMA) “active; positive”; (Species: MOUSE, Strain/Sex: B6C3F1/MALE, Route: ORAL, Dose: 0, 150, 300, 800 PPM IN DIET, Dose: 0, 150, 300, 800 PPM IN DIET, Tumor Site: Type of Lesion: LIVER: HEPATOCELLULAR ADENOMA OR CARCINOMA, HARDERIAN GLAND: ADENOMA, NOS) “active; positive”; (Species: RAT, Route: SUBCUTANEOUS, Tumor Site: Type of Lesion: LIVER) “active; positive”; (Species: RAT, Strain/Sex: F344/FEMALE, Route: ORAL, Dose: 0, 0.02, 0.04, 0.05% IN DIET FOR 103 WK (STUDY DURATION: 104 WK), Dose: 0, 0.02, 0.04, 0.05% IN DIET FOR 103 WK (STUDY DURATION: 104 WK), Tumor Site: Type of Lesion: THYROID GLAND: FOLLICULAR CARCINOMA, THYROID GLAND: FOLLICULAR ADENOMA, LIVER: NEOPLASTIC NODULE, LIVER: HEPATOCELLULAR, Tumor Site: Type of Lesion: THYROID GLAND: FOLLICULAR CARCINOMA, THYROID GLAND: FOLLICULAR ADENOMA, LIVER: NEOPLASTIC NODULE, LIVER: HEPATOCELLULAR) “active; positive”. In addition, the carcinogen call was “active; positive” (Species: RAT, Strain/Sex: F344/FEMALE, Route: ORAL, Dose: 0, 200, 400, 500 PPM IN DIET, Dose: 0, 200, 400, 500 PPM IN DIET, Tumor Site: Type of Lesion: LIVER: HEPATOCELLULAR CARCINOMA OR NEOPLASTIC NODULE, THYROID GLAND: FOLLICULAR CELL ADENOMA OR CARCINOMA); “active; positive” (Species: RAT, Strain/Sex: F344/MALE, Route: ORAL, Dose: 0, 0.02, 0.04, 0.05% IN DIET FOR 103 WK (STUDY DURATION: 104 WK), Dose: 0, 0.02, 0.04, 0.05% IN DIET FOR 103 WK (STUDY DURATION: 104 WK), Tumor Site: Type of Lesion: THYROID GLAND: FOLLICULAR CARCINOMA, THYROID GLAND: FOLLICULAR ADENOMA, LIVER: NEOPLASTIC NODULE, LIVER: HEPATOCELLULAR, Tumor Site: Type of Lesion: THYROID GLAND: FOLLICULAR CARCINOMA, THYROID GLAND: FOLLICULAR ADENOMA, LIVER: NEOPLASTIC NODULE, LIVER: HEPATOCELLULAR); “active; positive” (Species: RAT, Strain/Sex: F344/MALE, Route: ORAL, Dose: 0, 200, 400, 500 PPM IN DIET, Dose: 0, 200, 400, 500 PPM IN DIET, Tumor Site: Type of Lesion: LIVER: HEPATOCELLULAR CARCINOMA OR NEOPLASTIC NODULE, THYROID GLAND: FOLLICULAR CELL ADENOMA OR CARCINOMA).

With `Nc1ncc([N+](=O)[O-])s1`, the carcinogen call reads like this: (Species: MOUSE, Strain/Sex: B6C3F1/FEMALE, Route: ORAL, Dose: 0, 50, 100 PPM IN DIET, Dose: 0, 50, 100 PPM IN DIET) “inactive; negative”; (Species: MOUSE, Strain/Sex: B6C3F1/MALE, Route: ORAL, Dose: 0, 50, 100 PPM IN DIET, Dose: 0, 50, 100 PPM IN DIET) “inactive; negative”; (Species: RAT, Strain/Sex: F344/FEMALE, Route: ORAL, Dose: 0, 300, 600 PPM IN DIET, Dose: 0, 300, 600 PPM IN DIET) “inactive; negative”.

For the compound `O=C1CCC(=O)O1`, the carcinogen call was “inactive; negative” (Species: MOUSE, Strain/Sex: B6C3F1/FEMALE, Route: GAVAGE, Dose: 0, 75, 150 MG/KG IN CORN OIL 5 D/WK FOR 103 WK (STUDY DURATION: 104 WK), Dose: 0, 75, 150 MG/KG IN CORN OIL 5 D/WK FOR 103 WK (STUDY DURATION: 104 WK)); “inactive; negative” (Species: MOUSE, Strain/Sex: B6C3F1/MALE, Route: GAVAGE, Dose: 0, 38, 75 MG/KG IN CORN OIL 5 D/WK FOR 103 WK (STUDY DURATION: 104 WK), Dose: 0, 38, 75 MG/KG IN CORN OIL 5 D/WK FOR 103 WK (STUDY DURATION: 104 WK)); “inactive; negative” (Species: RAT, Strain/Sex: F344/FEMALE, Route: GAVAGE, Dose: 0, 50, 100 MG/KG IN CORN OIL 5 D/WK FOR 103 WK (STUDY DURATION: 104 WK), Dose: 0, 50, 100 MG/KG IN CORN OIL 5 D/WK FOR 103 WK (STUDY DURATION: 104 WK)); “inactive; negative” (Species: RAT, Strain/Sex: F344/MALE, Route: GAVAGE, Dose: 0, 50, 100 MG/KG IN CORN OIL 5 D/WK FOR 103 WK (STUDY DURATION: 104 WK), Dose: 0, 50, 100 MG/KG IN CORN OIL 5 D/WK FOR 103 WK (STUDY DURATION: 104 WK)).
